What all share (format): biochemical
In experiment [1] the target is T1, NPP7 (Homo sapiens, UniProt Q6UWV6).
T1 sequence (Q6UWV6 22-458): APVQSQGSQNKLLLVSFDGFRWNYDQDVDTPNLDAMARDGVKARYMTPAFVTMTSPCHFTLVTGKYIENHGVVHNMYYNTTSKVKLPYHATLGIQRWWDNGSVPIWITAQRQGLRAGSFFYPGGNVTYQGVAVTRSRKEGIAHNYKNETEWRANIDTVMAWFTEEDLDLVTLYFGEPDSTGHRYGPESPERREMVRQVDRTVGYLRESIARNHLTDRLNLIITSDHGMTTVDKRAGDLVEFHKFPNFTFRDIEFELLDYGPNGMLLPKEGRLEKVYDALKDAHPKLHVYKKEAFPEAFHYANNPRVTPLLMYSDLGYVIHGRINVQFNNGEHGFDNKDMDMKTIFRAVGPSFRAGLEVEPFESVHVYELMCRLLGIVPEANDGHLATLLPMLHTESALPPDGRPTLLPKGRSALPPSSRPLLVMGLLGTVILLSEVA
Put plainly: NPP-7 inhibition assay (pNPPC substrate). Particulars: 10 μM compound; 8.3 nM enzyme; 10 μM pNPPC; read-out: NPP7 Activity, % control (10 μM). Here is the method: (§1) NPP6 and NPP7 are the only NPP isoforms other than ATX that are known to utilize lysophospholipid phosphodiesters as substrates. Therefore, the specificity of the chemical compounds of the invention regarding ATX was addressed by determining the activity of NPP6 and NPP7 in the presence and absence of these analogs.
(§2) Inhibition of NPP6 and NPP7 was evaluated using recombinant, purified proteins, the synthetic substrate para-nitrophenylphosphocholine (pNPPC) and a Synergy II plate reader (BioTek, Winooski, Vt.). The final concentration of each enzyme was 8.3 nM and pNPPC was 10 μM. All analogs were tested at single 10 μM concentrations. Absorbance of liberated para-nitrophenol at 405 nm was determined up to 1 hour (where responses were linear) and was normalized to vehicle control.

The target of experiment [2] is T2, recombinant human ATX (Homo sapiens, UniProt Q13822). Put plainly: Autotaxin inhibition screening assay (FS-3 FRET substrate). Particulars: for remaining activity at 10 µM: 1 μM FS-3, 37° C., read-out: ATX Activity, % control (10 μM); for inhibition at 10 µM: read-out: inhibition (reduction) of FS3 hydrolysis. The method, then:
A 10 μM concentration of the compound is added to 2 nM recombinant human ATX and the FRET (Fluorescence Resonance Energy Transfer) ATX substrate FS-3.
As the first level of screen, 50 μl of recombinant-ATX (2 nM in final concentration) in assay buffer [(Tris 50 mM, NaCl 140 mM, KCl 5 mM, CaCl2 1 mM, MgCl2 1 mM (pH 8.0)] was mixed with 25 μL of FS-3 (Echelon Biosciences, Inc., Salt lake city, Utah), final concentration 1 μM, and 25 μl of test compound was dissolved in assay buffer with 40 μM bovine serum albumin (Sigma, St. Louis, Mo.) in 96-well Costar black-well plate. FS-3 fluorescence at excitation and emission wavelengths of 485 and 538 nm, respectively, were monitored using a FLEXstation II (Molecular Devices, Sunnyvale, Calif.) for 2 h of incubation at 37° C. The differences between time 0 and 120 min were calculated individually and normalized to the vehicle control. The mean±SD of triplicate samples was expressed as percentage of ATX activity. The ATX activity in the presence of the test compounds was compared to vehicle using the […] p<0.05 was considered significant.
The first level of testing was done using 10 μM concentrations of the compounds shown in Tables 1 and 2 added to 2 nM recombinant human ATX and the FRET substrate FS-3. After a 2 h incubation the amount of FS3 hydrolyzed was measured and the residual ATX activity was expressed as a percent of the vehicle-treated sample less the autolysis of FS3 in the absence of ATX.

In experiment [3] the target is T3, NPP6 (Homo sapiens, UniProt Q6UWR7).
T3 sequence (Q6UWR7 23-419): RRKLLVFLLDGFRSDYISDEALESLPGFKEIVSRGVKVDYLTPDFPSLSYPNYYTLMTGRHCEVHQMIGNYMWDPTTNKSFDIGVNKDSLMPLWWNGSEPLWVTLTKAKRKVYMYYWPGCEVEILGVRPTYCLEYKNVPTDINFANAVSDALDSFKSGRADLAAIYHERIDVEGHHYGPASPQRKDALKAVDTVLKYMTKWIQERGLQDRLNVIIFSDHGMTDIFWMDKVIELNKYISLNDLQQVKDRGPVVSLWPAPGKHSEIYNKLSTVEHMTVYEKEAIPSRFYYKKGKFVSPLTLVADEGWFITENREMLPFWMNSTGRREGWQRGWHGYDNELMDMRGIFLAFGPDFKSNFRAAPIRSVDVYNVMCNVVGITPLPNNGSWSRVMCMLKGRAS
Put plainly: NPP-6 inhibition assay (pNPPC substrate). Particulars: 10 μM compound; 8.3 nM enzyme; 10 μM pNPPC; read-out: NPP6 Activity, % control (10 μM). The method, then: as §1, §2

Experiment [4] has as its target T2, recombinant human ATX. Put plainly: Autotaxin inhibition screening assay (FS-3 FRET substrate). Particulars: FS3 hydrolysis.
Where [5] appears, read: 10 μM compound, 2 nM recombinant human ATX, 2 h.

The source of these data is patent US8673882B2, “Inhibitors of autotaxin” (University of Tennessee Research Foundation, priority 2011, dated 2014).

The structures appear in SMILES notation. Like-named read-outs stand apart in the source and are kept apart here.

For `CCCCCCCCCCC/C=C/c1ccc2cc(CP(=O)(O)O)ccc2c1` [Compound 30b, (E)-6-Tridec-1-enyl-naphthalen-2-yl-methylphosphonic acid], the remaining activity at 10 µM in experiment [1] worked out at 96.5%; in experiment [2] (setting [5]) it was 17.3%; in experiment [3], 104%. Also, the inhibition at 10 µM in experiment [2] (setting [5]) was 83%. The “ATX inhibition in dose-response curves (FIG. 10)” value in experiment [4] was “dose-dependently and completely inhibited ATX”.

On to `CCCCCCCCCCCCCCCc1ccc(CP(=O)(O)O)cc1` [Compound 22, 4-Pentadecylbenzylphosphonic acid], for which the remaining activity at 10 µM came to 96.7% in experiment [1], 5.2% in experiment [2] (setting [5]) and 96.5% in experiment [3]. Besides, the inhibition at 10 µM in experiment [2] came to 95%. In experiment [4], the “ATX inhibition in dose-response curves (FIG. 10)” value was “dose-dependently and completely inhibited ATX”.

Usually inhibition stands for the change of the read-out against control, counted positive when it falls.
